The conditions of data set [1]: dog, in vivo.
Data set [2] is described as follows: in vivo. The note with it: beagle, dog, po, 1 mg, Meptazinol AUCt.
The conditions of data set [3]: dog, in vivo, po.
A short description of data set [4]: in vivo. The settings on record: dog.
The conditions of data set [5]: dog, in vivo. This is another data set of the same source.
For data set [6] the following is noted: cited from earlier work.

Structures can show the parent of a compound that is named as a salt. Where two headings read alike, the source gives them in different places. A value given as a limit tells only on which side of the number the result lay.

Consider `COC12CCC3(CC1C(C)(O)C(C)(C)C)C1Cc4ccc(OC(=O)NC(Cc5ccccc5)C(=O)O)c5c4C3(CCN1CC1CC1)C2O5` (stereo not drawn) [Buprenorphine phenylalanine carbamate], for which, in data set [1], the “AUC (mean ngh/mL ± SD)” value worked out at 9.66 ± 1.92, the “Cmax (mean ng/mL ± SD)” value is 0.86 ± 0.32 ng/mL and the “Mean relative bioavailability %” value is 84.5%. Moreover, the “pH 10.0 buffer: % remaining after 2 h/20° C.” value (buffer, pH 10) is on record as 74%. In addition, the “Distilled water (pH 5.9): % remaining after 2h/20° C.” value (pH 5.9) was determined as 99%. The “Simulated gastric fluid (pH 1.1): % remaining after 2 h/37° C.” value (simulated gi fluid, pH 1.1) is reported as 100%. In addition, the “Simulated intestinal fluid (pH 6.8): % remaining after 2 h/37° C.” value (simulated gi fluid, pH 6.8) is given as 45%.
With `CCC1(c2cccc(O)c2)CCCCN(C)C1` (stereo not drawn) [Meptazinol HCl], the exposure AUC(0-t) in the data set “in vivo [2]” is 5.87 ng·h/mL. Moreover, in data set [3], the “AUC (mean ngh/mL ± SD)” value is recorded as 15.6 ± 7.4.
For the compound `CC(C)[C@H](NC(=O)Oc1ccc2c3c1OC1C(=O)CC[C@@]4(O)[C@@H](C2)N(C)CC[C@]314)C(=O)O` (stereo partly drawn) [Oxymorphone valine carbamate HCl, (S)-2-[(4,5-Epoxy-14-hydroxy-17-methylmorphinan-6-one-3-yl)-oxycarbonylamino]-3-methylbutanoic acid Hydrochloride], the AUC in “in vivo [4]” (Beagle, po, 0.5 mg, Oxymorphone valine carbamate AUC) is 234 ng·h/mL. The AUC(0-t) in “in vivo [4]” (Beagle, po, 0.5 mg, Oxymorphone valine carbamate AUCt) is 232 ng·h/mL. The compound further registered a maximum concentration (Cmax) in the data set “in vivo [4]” (Beagle, po, 0.5 mg, Oxymorphone valine carbamate Cmax) of 75 ng/mL. In addition, the “Mean relative bioavailability %” value in data set [5] (Beagle, 0.5 mg/kg) is reported as 816%. Also, the “Cmax (mean ng/mL ± SD)” value in data set [5] (Beagle, po, 0.5 mg/kg) came to 21.6 ± 7.2 ng/mL. The “plasma levels of the prodrug relative to the drug itself” value in data set [5] (beagle, po) is given as “approx. 4 fold”. Also, in data set [5] (po), the “AUC (mean ngh/mL ± SD)” value was found to be 94.4 ± 33.3 and the “time for which plasma drug levels were maintained above 50% of Cmax, prodrug vs drug itself” value was “almost twice as long”.
With `CCC1(c2cccc(O)c2)CCCCN(C)C1` (stereo not drawn) [meptazinol, 3-(3-Ethyl-1-methyl-azepan-3-yl)-phenol], in data set [6] (oral, Norbury et al. (1983)), the “range of observed oral bioavailabilities” value is 2-20% and the “reported mean bioavailability values” is reported as 4-9%. For the same compound, the “oral dose removed as it passes through the liver (first pass metabolism)” value in data set [6] (oral) was “up to 98%”. Further, the bioavailability in data set [6] (rectal formulation, Murray et al. (1989)) was 15-20%. For the same compound, the “relative standard deviation (variability in meptazinol levels, mean AUC)” value in data set [3] (beagle) was found to be 26%. Further, the “Meptazinol AUC” value in data set [3] (beagle, 1 mg) is given as 12.8±3.4.
With `CN1CC[C@]23c4c5ccc(O)c4O[C@H]2C(=O)CC[C@@]3(O)[C@H]1C5` [oxymorphone, 14-hydroxydihydromorphinone], in the data set “in vivo [4]” (iv, intravenous AUC value), the AUC was 146 ng·h/mL. Moreover, the half life in data set [6] (Adams and Ahdieh (2005)) is on record as approximately 7 h. The “food effect: increase of Cmax values” in data set [6] (Opana FDA labeling) is given as not above 38%. Further, the absolute oral bioavailability in data set [6] (Sloan et al. (2005)) is 10%.

One may read the AUC(0-t) as exposure summed from dosing to a finite time, without extrapolation to infinity. As usually defined, the AUC is the area under the concentration-time curve, a measure of exposure. By Cmax is commonly meant the maximum level reached in the sampled fluid or tissue.

The values above are taken from patent US20090186832A1 (priority 2008, published 2009).
